The values that follow come from patent publication US8440724B2, “Inhibiting neurotransmitter reuptake” (Mayo Foundation for Medical Education and Research, priority 2008, dated 2013).

Test [1] deals with T1, mouse NET (Mus musculus, UniProt O55192).
T1 construct: from tissue; host or cells: mouse hippocampus
Kind of test: Competition binding against [3H]nisoxetine, mouse hippocampus tissue. As to conditions: mouse brain tissue (hippocampus), FIG. 10F vs Table 2. The protocol:
(§1) FIGS. 10A-D contain graphs plotting activity levels (counts/6 minutes) for mice treated with the indicated compound at the indicated amount. […] Each group of mice included between three and seven mice. FIGS. 10F is a line graph plotting the competition binding of the indicated compound against [^3H]nisoxetine for mouse hippocampus tissue. FIGS. 10G is a line graph plotting the competition binding of the indicated compound against [^3H]citalopram for mouse cortex tissue. FIG. 10H is a bar graph plotting the duration of immobility (seconds) during a tail suspension test of mice intraperitoneally (ip) or per os (po; orally) treated with 5 mg/kg of the indicated compound. […] Each group of mice included between seven and nine mice.

Test [2] has as its target T2, mouse SERT (Mus musculus, UniProt Q60857).
T2 construct: from tissue; host or cells: mouse cortex
Kind of test: Competition binding against [3H]citalopram, mouse cortex tissue. As to conditions: mouse brain tissue (cortex), FIG. 10G vs Table 2. The protocol:
as §1

T2 sequence (Q60857 whole entry): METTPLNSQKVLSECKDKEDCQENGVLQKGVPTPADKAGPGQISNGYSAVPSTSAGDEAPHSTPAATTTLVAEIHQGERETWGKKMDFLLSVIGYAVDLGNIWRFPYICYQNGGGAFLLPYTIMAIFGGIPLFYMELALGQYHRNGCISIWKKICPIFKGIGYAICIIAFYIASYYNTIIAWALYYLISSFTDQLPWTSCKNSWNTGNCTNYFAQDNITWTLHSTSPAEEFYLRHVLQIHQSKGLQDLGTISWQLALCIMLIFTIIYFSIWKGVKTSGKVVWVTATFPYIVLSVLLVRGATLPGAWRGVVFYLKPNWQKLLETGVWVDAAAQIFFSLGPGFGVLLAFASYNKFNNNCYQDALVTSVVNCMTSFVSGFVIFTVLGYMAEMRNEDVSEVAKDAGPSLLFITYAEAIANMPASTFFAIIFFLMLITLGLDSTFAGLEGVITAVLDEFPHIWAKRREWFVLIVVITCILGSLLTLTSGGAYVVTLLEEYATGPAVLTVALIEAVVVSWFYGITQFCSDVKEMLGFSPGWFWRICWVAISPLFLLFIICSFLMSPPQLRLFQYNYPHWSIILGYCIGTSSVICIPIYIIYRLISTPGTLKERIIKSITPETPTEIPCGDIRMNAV
T1 sequence (O55192 whole entry): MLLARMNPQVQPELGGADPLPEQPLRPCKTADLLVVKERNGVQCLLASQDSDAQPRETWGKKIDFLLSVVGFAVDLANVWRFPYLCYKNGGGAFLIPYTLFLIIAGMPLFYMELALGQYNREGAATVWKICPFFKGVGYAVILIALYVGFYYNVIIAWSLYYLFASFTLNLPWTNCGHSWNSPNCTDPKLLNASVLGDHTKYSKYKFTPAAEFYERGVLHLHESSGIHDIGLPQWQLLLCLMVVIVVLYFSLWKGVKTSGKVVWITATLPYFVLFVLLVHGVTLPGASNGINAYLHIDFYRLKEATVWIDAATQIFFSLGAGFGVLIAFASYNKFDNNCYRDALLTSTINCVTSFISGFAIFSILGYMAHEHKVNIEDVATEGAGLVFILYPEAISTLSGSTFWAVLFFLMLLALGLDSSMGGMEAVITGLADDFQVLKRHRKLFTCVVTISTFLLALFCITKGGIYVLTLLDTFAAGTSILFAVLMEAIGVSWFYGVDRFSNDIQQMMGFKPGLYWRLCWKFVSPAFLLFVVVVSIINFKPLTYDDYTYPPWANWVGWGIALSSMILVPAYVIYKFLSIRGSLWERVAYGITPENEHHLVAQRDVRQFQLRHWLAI

As for `CN(C)C[C@H](c1ccc2ccccc2c1)[C@H](N)c1ccccc1` [MCJ002-NH2-SS, (2S,3S)-N1,N1-dimethyl-2-(naphthalen-2-yl)-3-phenylpropane-1,3-diamine], the “Potency at mouse NET as compared to potency at human NET” value in test [1] was 10 fold weaker. Further, the “Potency at mouse SERT as compared to human SERT” value in test [2] was “about the same potency at mouse SERT”.
